Where two headings read alike, the source gives them in different places. Each block holds one compound with its values, some of them ahead of it.
Key:
[1] = tested on: MCF-7 breast cancer cell; assay: MTT anti-proliferative assay, MCF-7; format: cell-based, human; conditions: MTT, 48 h
Summary of the method: (§1)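 Anti-proliferative effect is measured with the MTT assay, which reports inhibition of net cell growth. Cells come from ATCC, are maintained in DMEM with FBS and are seeded into 96-well plates before treatment.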

[2] = tested on: HepG2 hepatoma cell; assay: MTT anti-proliferative assay, HepG2; format: cell-based, human; conditions: MTT, 48 h, read-out: IC50 HepG-2
Summary of the method: as §1

[3] = tested on: MCF-10A normal breast cell; assay: MTT assay, MCF-10A normal cells; format: cell-based, human; conditions: 48 h
Summary of the method: as §1

[4] = tested on: L-02 normal liver cell; assay: MTT assay, L-02 normal cells; format: cell-based, human; conditions: 48 h
Summary of the method: as §1

[5] = tested on: SGC-7901 early differentiation gastric cancer cell; assay: MTT anti-proliferative assay, SGC-7901; format: cell-based, human; conditions: for IC50: MTT, 48 h
Summary of the method: as §1

[6] = tested on: MGC-803 late stage differentiation gastric cancer cell; assay: MTT anti-proliferative assay, MGC-803; format: cell-based, human; conditions: for IC50: MTT, 48 h
Summary of the method: as §1

[7] = tested on: Raji B lymphoblastoid cell; assay: MTT anti-proliferative assay, Raji; format: cell-based, human
Summary of the method: as §1

[8] = tested on: AGS gastric cancer cell; assay: MTT anti-proliferative assay, AGS; format: cell-based, human; conditions: for IC50: MTT, 48 h
Summary of the method: as §1

[9] = tested on: HCT116 colectal cancer cell; assay: MTT anti-proliferative assay, HCT116; format: cell-based, human; conditions: for IC50: MTT, 48 h
Summary of the method: as §1

[10] = tested on: diffuse large B-cell lymphoma SU-DHL-10 cell; assay: MTT anti-proliferative assay, SU-DHL-10; format: cell-based, human
Summary of the method: as §1

[11] = tested on: A549 lung cancer cell; assay: MTT anti-proliferative assay, A549; format: cell-based, human; conditions: MTT, 48 h
Summary of the method: as §1

[12] = tested on: HeLa cervical cancer cell; assay: MTT anti-proliferative assay, HeLa; format: cell-based, human; conditions: MTT, 48 h
Summary of the method: as §1

[13] = tested on: BEL-7402 liver cancer cell; assay: MTT anti-proliferative assay, BEL-7402; format: cell-based, human; conditions: for IC50: MTT, 48 h
Summary of the method: as §1

[14] = Homo sapiens, Raji, MTT, 48 h, read-out: IC50 Raji
[15] = Homo sapiens, SU-DHL10, MTT, 48 h, read-out: IC50 SU-DHL-10

Compound: COc1ccc(C(=O)/C=C/c2ccc(/C=C(\C#N)c3ccc(OC(F)(F)F)cc3)cc2)cc1 [Compound 8a]
IC50 ([1]; Homo sapiens, MCF7): 17.6 ± 6.5 µM
IC50 ([2]; Homo sapiens, HepG2): > 100 µM
IC50 ([3]; Homo sapiens, MCF-10A): 11.3 ± 2.3 µM
IC50 ([4]; Homo sapiens): > 100 µM
IC50 ([5]; Homo sapiens, SGC-7901): > 100 µM
IC50 ([6]; Homo sapiens, MGC-803): > 100 µM
melting point: 148 to 150 °C
IC50 [7, 14]: 1.2 ± 0.5 µM
IC50 ([7]; Homo sapiens, Raji, read-out: IC50 Raji cells): ~1 µM
IC50 ([8]; Homo sapiens): > 100 µM
IC50 ([9]; Homo sapiens, HCT-116): 56.3 ± 8.4 µM
IC50 [10, 15]: 1.3 ± 0.1 µM
IC50 ([10]; Homo sapiens, SU-DHL10, read-out: IC50 SU-DHL-10 cells): ~1 µM
IC50 ([11]; Homo sapiens, A549): > 100 µM
IC50 ([12]; Homo sapiens, HeLa): > 100 µM
IC50 ([13]; Homo sapiens, Bel-7402): 13.2 ± 2.7 µM

Compound: N#C/C(=C\c1ccc(/C=C/C(=O)c2ccc(F)cc2)cc1)c1ccc(OC(F)(F)F)cc1 [Compound 8c]
IC50 [1]: 67.7 ± 5.4 µM
IC50 [2]: > 100 µM
IC50 [3]: 15.8 ± 2.5 µM
IC50 [4]: > 100 µM
SI (selectivity index), IC50 (L-02)/IC50 (SGC-7901) [5]: > 4.5
IC50 [5]: 22.2 ± 8.6 µM
SI (selectivity index), IC50 (L-02)/IC50 (MGC-803) [6]: > 1.1
IC50 [6]: 87.5 ± 0.6 µM
SI (selectivity index), IC50 (L-02)/IC50 (Raji) [7]: > 99.0
IC50 ([7]; MTT, 48 h, read-out: IC50 Raji): 1 ± 0.2 µM
IC50 ([7]; read-out: IC50 Raji cells): ~1 µM
SI (selectivity index), IC50 (L-02)/IC50 (AGS) [8]: > 3.9
IC50 [8]: 25.3 ± 7.5 µM
SI (selectivity index), IC50 (L-02)/IC50 (HCT-116) [9]: > 4.3
IC50 ([9]; read-out: IC50 HCT-116): 22.9 ± 6.2 µM
SI (selectivity index), IC50 (L-02)/IC50 (SU-DHL-10) [10]: > 96.1
IC50 ([10]; MTT, 48 h, read-out: IC50 SU-DHL-10): 1 ± 0.2 µM
IC50 ([10]; read-out: IC50 SU-DHL-10 cells): ~1 µM
IC50 [11]: > 100 µM
IC50 [12]: > 100 µM
SI (selectivity index), IC50 (L-02)/IC50 (BEL-7402) [13]: > 1.2
IC50 [13]: 77.4 ± 3 µM

Compound: N#C/C(=C\c1cn(Cc2ccccc2)c2ccccc12)c1ccc(OC(F)(F)F)cc1 [Compound 9, (Z)-3-(1-benzyl-1H-indol-3-yl)-2-(4-(trifluoromethoxy)phenyl)acrylonitrile]
IC50 ([1]; Homo sapiens, MCF7): > 100 µM
IC50 ([2]; Homo sapiens, HepG2): > 100 µM
IC50 ([3]; Homo sapiens, MCF-10A): > 100 µM
IC50 ([4]; Homo sapiens): > 100 µM
IC50 ([5]; Homo sapiens, SGC-7901): > 100 µM
IC50 ([6]; Homo sapiens, MGC-803): > 100 µM
melting point: 118 to 120 °C
IC50 [7, 14]: > 100 µM
IC50 ([8]; Homo sapiens): > 100 µM
IC50 ([9]; Homo sapiens, HCT-116): > 100 µM
IC50 [10, 15]: > 100 µM
IC50 ([11]; Homo sapiens, A549): > 100 µM
IC50 ([12]; Homo sapiens, HeLa): > 100 µM
IC50 ([13]; Homo sapiens, Bel-7402): > 100 µM

Further lines, with some results ahead:

IC50 ([1]; Homo sapiens, MCF7): > 100 µM
IC50 ([2]; Homo sapiens, HepG2): > 100 µM
IC50 ([5]; Homo sapiens, SGC-7901): > 100 µM
IC50 ([6]; Homo sapiens, MGC-803): > 100 µM
IC50 [7, 14]: > 100 µM
IC50 ([8]; Homo sapiens): > 100 µM
IC50 ([9]; Homo sapiens, HCT-116): > 100 µM
IC50 [10, 15]: > 100 µM
IC50 ([11]; Homo sapiens, A549): > 100 µM
IC50 ([12]; Homo sapiens, HeLa): > 100 µM
IC50 ([13]; Homo sapiens, Bel-7402): > 100 µM
Compound: N#C/C(=C\c1cn(-c2ccccc2)nn1)c1ccc(OC(F)(F)F)cc1 [Compound 7a]
IC50 ([3]; Homo sapiens, MCF-10A): > 100 µM
IC50 ([4]; Homo sapiens): > 100 µM

IC50 ([1]; Homo sapiens, MCF7): > 100 µM
IC50 ([2]; Homo sapiens, HepG2): > 100 µM
IC50 ([5]; Homo sapiens, SGC-7901): > 100 µM
IC50 ([6]; Homo sapiens, MGC-803): > 100 µM
IC50 [7, 14]: > 100 µM
IC50 ([8]; Homo sapiens): > 100 µM
IC50 ([9]; Homo sapiens, HCT-116): > 100 µM
IC50 [10, 15]: > 100 µM
IC50 ([11]; Homo sapiens, A549): > 100 µM
IC50 ([12]; Homo sapiens, HeLa): > 100 µM
IC50 ([13]; Homo sapiens, Bel-7402): > 100 µM
Compound: COc1cccc(-n2cc(/C=C(\C#N)c3ccc(OC(F)(F)F)cc3)nn2)c1 [Compound 7b]
IC50 ([3]; Homo sapiens, MCF-10A): > 100 µM
IC50 ([4]; Homo sapiens): > 100 µM

IC50 ([1]; Homo sapiens, MCF7): > 100 µM
IC50 ([2]; Homo sapiens, HepG2): > 100 µM
IC50 ([5]; Homo sapiens, SGC-7901): > 100 µM
IC50 ([6]; Homo sapiens, MGC-803): > 100 µM
melting point: 170 to 172 °C
IC50 [7, 14]: > 100 µM
IC50 ([8]; Homo sapiens): > 100 µM
IC50 ([9]; Homo sapiens, HCT-116): > 100 µM
IC50 [10, 15]: > 100 µM
IC50 ([11]; Homo sapiens, A549): > 100 µM
IC50 ([12]; Homo sapiens, HeLa): > 100 µM
IC50 ([13]; Homo sapiens, Bel-7402): > 100 µM
Compound: COc1cc(-n2cc(/C=C(\C#N)c3ccc(OC(F)(F)F)cc3)nn2)cc(OC)c1OC [Compound 7c]
IC50 ([3]; Homo sapiens, MCF-10A): > 100 µM
IC50 ([4]; Homo sapiens): > 100 µM

IC50 ([1]; Homo sapiens, MCF7): > 100 µM
IC50 ([2]; Homo sapiens, HepG2): > 100 µM
IC50 ([5]; Homo sapiens, SGC-7901): > 100 µM
IC50 ([6]; Homo sapiens, MGC-803): > 100 µM
melting point: 155 to 157 °C
IC50 [7, 14]: > 100 µM
IC50 ([8]; Homo sapiens): > 100 µM
IC50 ([9]; Homo sapiens, HCT-116): > 100 µM
IC50 [10, 15]: > 100 µM
IC50 ([11]; Homo sapiens, A549): > 100 µM
IC50 ([12]; Homo sapiens, HeLa): > 100 µM
IC50 ([13]; Homo sapiens, Bel-7402): > 100 µM
Compound: N#C/C(=C\c1ccc(/C=C/C(=O)c2ccccc2)cc1)c1ccc(OC(F)(F)F)cc1 [Compound 8b]
IC50 ([3]; Homo sapiens, MCF-10A): > 100 µM
IC50 ([4]; Homo sapiens): > 100 µM

IC50 ([1]; Homo sapiens, MCF7): 53.1 ± 7.1 µM
IC50 ([2]; Homo sapiens, HepG2): > 100 µM
IC50 ([5]; Homo sapiens, SGC-7901): > 100 µM
IC50 ([6]; Homo sapiens, MGC-803): > 100 µM
melting point: 145 to 147 °C
IC50 [7, 14]: 3 ± 1 µM
IC50 ([8]; Homo sapiens): 31.8 ± 6.1 µM
IC50 ([9]; Homo sapiens, HCT-116): 35.3 ± 6.5 µM
IC50 [10, 15]: 7.1 ± 2.6 µM
IC50 ([11]; Homo sapiens, A549): > 100 µM
IC50 ([12]; Homo sapiens, HeLa): > 100 µM
IC50 ([13]; Homo sapiens, Bel-7402): > 100 µM
Compound: N#C/C(=C\c1ccc(/C=C/C(=O)c2ccc(Br)cc2)cc1)c1ccc(OC(F)(F)F)cc1 [Compound 8d]
IC50 ([3]; Homo sapiens, MCF-10A): 37.3 ± 4.3 µM
IC50 ([4]; Homo sapiens): > 100 µM
SI (selectivity index), IC50 (L-02)/IC50 (Raji) [7]: > 79.3
SI (selectivity index), IC50 (L-02)/IC50 (HCT-116) [9]: > 1.7
SI (selectivity index), IC50 (L-02)/IC50 (SU-DHL-10) [10]: > 14.0
